The results in this text go back to PubChem BioAssay AID328 (DTP/NCI, 2004).

Several values for one entry are separate records, joined by “and”; a condition that tells them apart may be missing. Identical values can stand only once. Inconclusive results and toxic doses are left out.

This test has as its system BDF1 mice, P388 leukemia ip, median survival T/C. In words: NCI In Vivo Anticancer Drug Screen. Data for tumor model P388 Leukemia (intraperitoneal) in B6D2F1 (BDF1) mice. Particulars: endpoint: median survival time, higher = longer survival. Summed up: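 Steps: implant the tumour, treat one group with compound and another with vehicle, record survival, then divide treated by control.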

[1] abbreviates: dose: 100.0 mg/kg/injection, schedule: Q04DX003 (ip), vehicle: Klucel (hydroxypropylcellulose) (HPC).
The mark [2] stands for this setting: dose: 100.0 mg/kg/injection, schedule: Q01DX009 (ip), vehicle: saline with Tween-80.
[3] abbreviates: dose: 200.0 mg/kg/injection, schedule: Q01DX009 (ip), vehicle: saline with Tween-80.
The mark [4] stands for this setting: dose: 200.0 mg/kg/injection, schedule: Q04DX003 (ip), vehicle: Klucel (hydroxypropylcellulose) (HPC).
[5] abbreviates: dose: 400.0 mg/kg/injection, schedule: Q04DX003 (ip), vehicle: Klucel (hydroxypropylcellulose) (HPC).
Where [6] appears, read: dose: 50.0 mg/kg/injection, schedule: Q01DX009 (ip), vehicle: saline.
The mark [7] stands for this setting: dose: 50.0 mg/kg/injection, schedule: Q01DX009 (ip), vehicle: saline with Tween-80.
[8] abbreviates: dose: 12.5 mg/kg/injection, schedule: Q01DX009 (ip), vehicle: water.
Setting [9] is: dose: 25.0 mg/kg/injection, schedule: Q01DX009 (ip), vehicle: water.

Consider `CCCCCCCCCCCCCCCCCC[n+]1cccc(C(=O)N2CCOCC2)c1`, for which the T/C by setting is: (dose: 1.0 mg/kg/injection, schedule: Q01DX009 (ip), vehicle: saline with Tween-80) 108 % of control; (dose: 2.0 mg/kg/injection, schedule: Q01DX009 (ip), vehicle: Klucel (hydroxypropylcellulose) (HPC)) 100 % of control; (dose: 2.0 mg/kg/injection, schedule: Q01DX009 (ip), vehicle: saline with Tween-80) 95 % of control; (dose: 4.0 mg/kg/injection, schedule: Q01DX009 (ip), vehicle: Klucel (hydroxypropylcellulose) (HPC)) 90 % of control; (dose: 4.0 mg/kg/injection, schedule: Q01DX009 (ip), vehicle: saline with Tween-80) 100 % of control; (dose: 8.0 mg/kg/injection, schedule: Q01DX009 (ip), vehicle: Klucel (hydroxypropylcellulose) (HPC)) 109 % of control. The T/C by setting is: (dose: 8.0 mg/kg/injection, schedule: Q01DX009 (ip), vehicle: saline with Tween-80) 108 % of control; (dose: 16.0 mg/kg/injection, schedule: Q01DX009 (ip), vehicle: Klucel (hydroxypropylcellulose) (HPC)) 104 % of control; (dose: 16.0 mg/kg/injection, schedule: Q01DX009 (ip), vehicle: saline with Tween-80) 121 % of control; (dose: 25.0 mg/kg/injection, schedule: Q04DX003 (ip), vehicle: Klucel (hydroxypropylcellulose) (HPC)) 100 % of control; (dose: 32.0 mg/kg/injection, schedule: Q01DX009 (ip), vehicle: Klucel (hydroxypropylcellulose) (HPC)) 113 % of control; (dose: 50.0 mg/kg/injection, schedule: Q04DX003 (ip), vehicle: Klucel (hydroxypropylcellulose) (HPC)) 109 % of control. Moreover, under setting [1], the T/C was 90 % of control.
With `COC(OC)c1nc(SC)[nH]c(=O)c1C`, the T/C under setting [2] is 91 % of control; the T/C (dose: 100.0 mg/kg/injection, schedule: Q04DX003 (ip), vehicle: saline with Tween-80) is 100 % of control; the T/C under setting [3] was 95 % of control; the T/C (dose: 200.0 mg/kg/injection, schedule: Q04DX003 (ip), vehicle: saline with Tween-80) is 100 % of control; the T/C (dose: 400.0 mg/kg/injection, schedule: Q04DX003 (ip), vehicle: saline with Tween-80) was 95 % of control.
As to `S=C1NCCS1`, the T/C is 97 % of control (dose: 22.5 mg/kg/injection, schedule: Q01DX009 (ip), vehicle: saline with Tween-80); 97 % of control (dose: 45.0 mg/kg/injection, schedule: Q01DX009 (ip), vehicle: saline with Tween-80); 92 % of control (dose: 90.0 mg/kg/injection, schedule: Q01DX009 (ip), vehicle: saline with Tween-80).
With `CCOC(=O)c1cnn(-c2ccccc2)c1C`, the T/C (dose: 100.0 mg/kg/injection, schedule: Q01DX009 (ip), vehicle: Klucel (hydroxypropylcellulose) (HPC)) was 104 % of control; the T/C under setting [1] is 104 % of control; the T/C (dose: 200.0 mg/kg/injection, schedule: Q01DX009 (ip), vehicle: Klucel (hydroxypropylcellulose) (HPC)) was 100 % of control; the T/C under setting [4] was 87 % of control; the T/C (dose: 400.0 mg/kg/injection, schedule: Q01DX009 (ip), vehicle: Klucel (hydroxypropylcellulose) (HPC)) is 90 % of control; the T/C under setting [5] is 104 % of control.
As to `CCOC(=O)/C=C/c1c[nH]c(=O)[nH]c1=O`, the T/C (dose: 25.0 mg/kg/injection, schedule: Q01DX009 (ip), vehicle: saline) is 101 % of control; the T/C under setting [6] was 101 % of control; the T/C (dose: 100.0 mg/kg/injection, schedule: Q01DX009 (ip), vehicle: saline) is 101 % of control; the T/C (dose: 100.0 mg/kg/injection, schedule: Q04DX003 (ip), vehicle: saline) was 114 % of control; the T/C (dose: 200.0 mg/kg/injection, schedule: Q01DX009 (ip), vehicle: saline) was 104 % of control; the T/C (dose: 200.0 mg/kg/injection, schedule: Q04DX003 (ip), vehicle: saline) was 96 % of control. Further, the T/C (dose: 400.0 mg/kg/injection, schedule: Q04DX003 (ip), vehicle: saline) was 96 % of control.
As for `CS(=O)(=O)OCCSc1nc2ccccc2n1Cc1ccccc1`, the T/C was 100 % of control (dose: 25.0 mg/kg/injection, schedule: Q01DX001 (ip), vehicle: saline with Tween-80); 106 % of control (dose: 50.0 mg/kg/injection, schedule: Q01DX001 (ip), vehicle: saline with Tween-80); 101 % of control (dose: 100.0 mg/kg/injection, schedule: Q01DX001 (ip), vehicle: saline with Tween-80).
Consider `CN(C)c1ccc(Nc2c3ccccc3nc3ccccc23)cc1`, for which the T/C (dose: 36.0 mg/kg/injection, schedule: Q01DX010 (ip), vehicle: saline) was 159 % of control and 172 % of control; the T/C (dose: 54.0 mg/kg/injection, schedule: Q01DX010 (ip), vehicle: saline) is 159 % of control and 172 % of control; the T/C (dose: 80.0 mg/kg/injection, schedule: Q01DX010 (ip), vehicle: saline) is 213 % of control and 218 % of control; the T/C (dose: 120.0 mg/kg/injection, schedule: Q01DX010 (ip), vehicle: saline) was 268 % of control.
For the compound `CCCC(=O)c1ccco1`, under setting [7], the T/C was 101 % of control.
With `COc1ccc2[nH]c3c(C)c4cc[n+](C)cc4c(C)c3c2c1`, the T/C (dose: 6.25 mg/kg/injection, schedule: Q01DX009 (ip), vehicle: saline with Tween-80) was 99 % of control.
As for `CCCCCCCC(=O)N/N=C(\CO)[C@]1(O)Cc2c(O)c3c(c(O)c2[C@@H](OC2CC(N)C(O)C(C)O2)C1)C(=O)c1c(OC)cccc1C3=O` (some centres not stated), the T/C by setting is: (dose: 0.78 mg/kg/injection, schedule: Q01DX009 (ip), vehicle: water) 114 % of control; (dose: 1.56 mg/kg/injection, schedule: Q01DX009 (ip), vehicle: water) 183 % of control; (dose: 3.12 mg/kg/injection, schedule: Q01DX009 (ip), vehicle: water) 106 % of control and 222 % of control; (dose: 6.25 mg/kg/injection, schedule: Q01DX009 (ip), vehicle: water) 163 % of control and 200 % of control; under setting [8], 117 % of control and 204 % of control; under setting [9], 104 % of control.
In the case of `NC(=S)N=Nc1ccc(O)c2c(O)ccc(O)c12`, the T/C is 96 % of control (dose: 6.3 mg/kg/injection, schedule: Q01DX009 (ip), vehicle: water); 94 % of control under setting [8]; 92 % of control under setting [9]; 86 % of control (dose: 50.0 mg/kg/injection, schedule: Q01DX009 (ip), vehicle: water).
Take `Cc1ccc(OC/C=C/CS(=O)(=O)c2ccc(Cl)cc2)cc1`: the T/C runs as follows: under setting [1], 95 % of control; under setting [4], 95 % of control; under setting [5], 104 % of control.
As for `O=C1OC(=O)C2C1C(c1ccc([N+](=O)[O-])cc1)N1C3C(=O)OC(=O)C3C(c3ccc([N+](=O)[O-])cc3)N21` (configuration not stated), the T/C under setting [7] was 97 % of control, the T/C under setting [2] is 99 % of control and the T/C under setting [3] was 92 % of control.
With `COc1ccc(C(=O)/C=C/c2ccccc2)c(O)c1CC=C(C)C`, the T/C (dose: 1.25 mg/kg/injection, schedule: Q01DX009 (ip), vehicle: Klucel (hydroxypropylcellulose) (HPC)) is 114 % of control; the T/C (dose: 2.5 mg/kg/injection, schedule: Q01DX009 (ip), vehicle: Klucel (hydroxypropylcellulose) (HPC)) was 118 % of control; the T/C (dose: 5.0 mg/kg/injection, schedule: Q01DX009 (ip), vehicle: Klucel (hydroxypropylcellulose) (HPC)) is 91 % of control; the T/C (dose: 10.0 mg/kg/injection, schedule: Q01DX009 (ip), vehicle: Klucel (hydroxypropylcellulose) (HPC)) was 91 % of control; the T/C (dose: 20.0 mg/kg/injection, schedule: Q01DX009 (ip), vehicle: Klucel (hydroxypropylcellulose) (HPC)) is 95 % of control; the T/C (dose: 40.0 mg/kg/injection, schedule: Q01DX009 (ip), vehicle: Klucel (hydroxypropylcellulose) (HPC)) was 91 % of control.
In the case of `O=C1c2ccccc2C(=O)c2c(O)c(N3CCOCC3)cc(O)c21`, the T/C is, setting by setting: (dose: 1.0 mg/kg/injection, schedule: Q01DX009 (ip), vehicle: water) 121 % of control; (dose: 2.0 mg/kg/injection, schedule: Q01DX009 (ip), vehicle: water) 104 % of control; (dose: 4.0 mg/kg/injection, schedule: Q01DX009 (ip), vehicle: water) 104 % of control; (dose: 8.0 mg/kg/injection, schedule: Q01DX009 (ip), vehicle: water) 89 % of control; (dose: 16.0 mg/kg/injection, schedule: Q01DX009 (ip), vehicle: water) 111 % of control; (dose: 32.0 mg/kg/injection, schedule: Q01DX009 (ip), vehicle: water) 113 % of control. Under setting [6], the T/C is 90 % of control.
